The subject of test [1] is primigravid patients with subchorionic hematoma. Kind of test: Randomized clinical trial, vaginal capsules of example 4 (10 mg ALA) vs. progesterone and untreated controls: reabsorption of subchorionic hematoma, pelvic pain, vaginal bleeding, abortions. Type of test: in vivo, women. As to conditions: number of abortions per group (27 patients each); ALA p ≤ 0.05 vs progesterone and control groups.

Test [2] has as its system primigravid patients with threat of spontaneous abortion. Type of test: in vivo, women. As to conditions: 60 patients per group, vaginal, ALA 10 mg/day or progesterone 400 mg daily, p ≤ 0.05; for Absence of symptoms: post treatment. As to the method: Randomized trial, vaginal capsules of example 4 vs. progesterone and placebo Number of participants: 120 (60 medical device, 60 progesterone)
In primigravid patients between the 7th and 12th week of gestation, the trial had the following objective: • evaluating whether the administration of 10mg ALA vaginally is associated with the reduction of the number of spontaneous abortions.
Reduction or disappearance of symptoms related to the risk of spontaneous abortion after therapy
• Absence of heartbeat • Presence of uterine abnormalities • Presence of fetal abnormalities • Presence of multiple pregnancies • Presence of pre-pregnancy or gestational abnormalities • Diagnosis of allergic reaction to progesterone • Presence of ongoing therapies with anticoagulants or antihypertensives • Presence of karyotypic abnormalities
The women enrolled to be treated with ALA or progesterone were randomized into 2 groups: • 60 were administered with vaginal capsules containing 10 mg ALA 1 per day until resolution of the clinical condition • 60 were administered with vaginal capsules containing 400 mg progesterone daily.
(§1) Three visits were scheduled: • 1) Enrolment • 2) 20 days after the first visit • 3) 60 days after the first visit

Test [3] concerns primigravid patients with subchorionic hematoma. Nature of the test: Randomized clinical trial, vaginal capsules of example 4 (10 mg ALA) vs. progesterone and untreated controls: reabsorption of subchorionic hematoma, pelvic pain, vaginal bleeding, abortions. Type of test: in vivo, women. The note with it: for Pel. pain, 2nd visit / Vaginal bleeding, 2nd visit: 20 days after the first visit; for Pel. pain, 2nd visit: ALA p ≤ 0.05 vs the other two groups; for Vaginal bleeding, 2nd visit: no significant differences between the three groups; for Pel. pain, visit upon enrolment / Vaginal bleeding, visit upon enrolment: share of patients with symptom at enrolment (baseline); for Improvement (%) mean ± st. error (resorption of the subchorionic hematoma): vaginal, ALA 10 mg/day or progesterone 400 mg daily, ALA p ≤ 0.05 vs progesterone and control groups. The method, then: Randomized trial, vaginal capsules of example 4 vs. progesterone and placebo Number of participants: […] (27 medical device, 27 progesterone, 22 placebo)
In primigravid patients between the 7th and 12th week of gestation, the trial had the following objective: • evaluating whether the administration of 10 mg ALA vaginally is associated with the reabsorption of the subchorionic hematoma.
Reduction or disappearance of: • pelvic pain • vaginal bleeding
• Women aged 20-40 • Primigravid between 7th e and 12th weeks of gestation • Presence of pelvic pain • With or without moderate vaginal bleeding • Presence of the subchorionic hematoma detected by ultrasound
• Absence of the fetus • Absence of heartbeat • Presence of uterine abnormalities • Presence of fetal abnormalities • Presence of multiple pregnancies • Presence of pre-pregnancy or gestational abnormalities • Diagnosis of allergic reaction to progesterone • Presence of ongoing therapies with anticoagulants or antihypertensives • Presence of karyotypic abnormalities
The women enrolled to be treated with ALA or progesterone were randomized into 2 groups: • 27 were administered with vaginal capsules containing 10 mg ALA 1 per day until resolution of the clinical condition • 27 were administered with vaginal capsules containing 400 mg progesterone daily.
The women in the control group were those who refuse any medical treatment.
as §1
In each visit, a "blinded" operator carried out the ultrasound examination to evaluate the subchorionic hematoma and the subjective (pelvic pain) and objective (vaginal bleeding) symptoms were recorded.

Test [4] deals with fragments of amniochorial membranes. The note with it: pre-treatment with ALA; cited from earlier work.

The molecule `O=C(O)CCCCC1CCSS1` (stereo not drawn) [ALA, α-lipoic acid] gave a Spontaneous abortions in test [1] of 3. In test [2], this molecule had an Abortion of 15% and an Absence of symptoms of 85%. In addition, in test [3], the “Pel. pain, 2nd visit” value was 0%; the “Vaginal bleeding, 2nd visit” value was determined as 0%; the “Pel. pain, visit upon enrolment” value was 100%; the “Vaginal bleeding, visit upon enrolment” value was 54%. Also, the “Improvement (%) mean ± st. error (resorption of the subchorionic hematoma)” value in test [3] amounted to 83.9 ± 3.9%. Also, in test [4], the “release of MMP9 and cytokine-induced prostaglandin E2” value is given as “able to inhibit”; the “weakening of membranes induced by TNF” value is “able to inhibit”.

In the case of `CC(=O)[C@H]1CC[C@H]2[C@@H]3CCC4=CC(=O)CC[C@]4(C)[C@H]3CC[C@]12C` [Progesterone, reference compound], in test [1], the Spontaneous abortions came out at 6. In test [2], this molecule returned an Abortion of 25% and an Absence of symptoms of 75%. For the same molecule, in test [3], the “Pel. pain, 2nd visit” value worked out at 14%; the “Vaginal bleeding, 2nd visit” value is listed as 0%; the “Pel. pain, visit upon enrolment” value is listed as 100%; the “Vaginal bleeding, visit upon enrolment” value is 57%. The “Improvement (%) mean ± st. error (resorption of the subchorionic hematoma)” value in test [3] came out at 49.7 ± 2.7%.
